System: mutant Huntington (HTT) protein
Experiment: HTT Mutant HTRF iPSC assay (mHTT protein lowering)
Type: cell-based
Settings: human iPSC derived from a HTT patient with a poly-Q49 mutation

| SMILES | IC50 |
| --- | --- |
| Cc1cn2nc(-c3cc(F)c4nc([C@H]5[C@@H]6CN(CCF)C[C@@H]65)cn4c3)cc(C)c2n1 [Compound 216, 6-(8-fluoro-2-((1R,5S,6r)-3-(2-fluoroethyl)-3-azabicyclo[3.1.0]hexan-6-yl)imidazo[1,2-a]pyridin-6-yl)-2,8-dimethylimidazo[1,2-b]pyridazine] | 100 to 1000 nM |
| Cc1cn2nc(-c3cc(F)c4nc([C@H]5[C@@H]6CN(CC(F)F)C[C@@H]65)cn4c3)cc(C)c2n1 [Compound 217, 6-(2-((1R,5S,6r)-3-(2,2-difluoroethyl)-3-azabicyclo[3.1.0]hexan-6-yl)-8-fluoroimidazo[1,2-a]pyridin-6-yl)-2,8-dimethylimidazo[1,2-b]pyridazine] | 100 to 1000 nM |
| Cc1cn2nc(-c3cc(F)c4nc([C@H]5[C@@H]6CN(C7CC(F)(F)C7)C[C@@H]65)cn4c3)cc(C)c2n1 [Compound 218, 6-(2-((1R,5S,6r)-3-(3,3-difluorocyclobutyl)-3-azabicyclo[3.1.0]hexan-6-yl)-8-fluoroimidazo[1,2-a]pyridin-6-yl)-2,8-dimethylimidazo[1,2-b]pyridazine] | 100 to 1000 nM |
| Cc1nc2ccc(-c3cc(F)c4nc([C@H]5[C@@H]6CN(C)C[C@@H]65)cn4c3)nn2n1 [Compound 219, 6-(8-fluoro-2-((1R,5S,6r)-3-methyl-3-azabicyclo[3.1.0]hexan-6-yl)imidazo[1,2-a]pyridin-6-yl)-2-methyl-[1,2,4]triazolo[1,5-b]pyridazine] | 100 to 1000 nM |
| Cc1cn2nc(-c3cc(F)c4nc(C5CCN(C)CC5)cn4c3)cc2c(C)n1 [Compound 220, 2-(8-fluoro-2-(1-methylpiperidin-4-yl)imidazo[1,2-a]pyridin-6-yl)-4,6-dimethylpyrazolo[1,5-a]pyrazine] | < 100 nM |
| COCCN1CCC(c2cn3cc(-c4cc5c(C)nc(C)cn5n4)cc(F)c3n2)CC1 [Compound 221, 2-(8-fluoro-2-(1-(2-methoxyethyl)piperidin-4-yl)imidazo[1,2-a]pyridin-6-yl)-4,6-dimethylpyrazolo[1,5-a]pyrazine] | < 100 nM |
| Cc1cn2nc(-c3cc(F)c4nc([C@H]5[C@@H]6CN(C)C[C@@H]65)cn4c3)cc2c(C)n1 [Compound 222, 2-(8-fluoro-2-((1R,5S,6r)-3-methyl-3-azabicyclo[3.1.0]hexan-6-yl)imidazo[1,2-a]pyridin-6-yl)-4,6-dimethylpyrazolo[1,5-a]pyrazine] | < 100 nM |
| Cc1cc2nc(-c3cc(F)c4nc([C@H]5[C@@H]6CN(C)C[C@@H]65)cn4c3)cc(C)n2n1 [Compound 223, 5-(8-fluoro-2-((1R,5S,6r)-3-methyl-3-azabicyclo[3.1.0]hexan-6-yl)imidazo[1,2-a]pyridin-6-yl)-2,7-dimethylpyrazolo[1,5-a]pyrimidine] | 100 to 1000 nM |
| Cc1nc2c(C)cc(-c3cc(F)c4nc(C5CCN(C)CC5)cn4c3)nn2n1 [Compound 224] | < 100 nM |
| COc1cc(-c2cc(F)c3nc(C4CCN(C)CC4)cn3c2)nn2nc(C)nc12 [Compound 225, 6-(8-fluoro-2-(1-methylpiperidin-4-yl)imidazo[1,2-a]pyridin-6-yl)-8-methoxy-2-methyl-[1,2,4]triazolo[1,5-b]pyridazine] | < 100 nM |
| Cc1cn2nc(-c3cc(F)c4nc(C5CCN(C6(C)CC6)CC5)cn4c3)cc(C)c2n1 [Compound 226, 6-[8-fluoro-2-[1-(1-methylcyclopropyl)-4-piperidyl]imidazo[1,2-a]pyridin-6-yl]-2,8-dimethyl-imidazo[1,2-b]pyridazine] | 100 to 1000 nM |
| Cc1nc2c(C)cc(-c3cc(F)c4nc([C@H]5[C@@H]6CN(C)C[C@@H]65)cn4c3)nn2n1 [Compound 227, 6-(8-fluoro-2-((1R,5S,6r)-3-methyl-3-azabicyclo[3.1.0]hexan-6-yl)imidazo[1,2-a]pyridin-6-yl)-2,8-dimethyl-[1,2,4]triazolo[1,5-b]pyridazine] | < 100 nM |
| Cc1cc(-c2cc(F)c3nc([C@H]4[C@@H]5CN(C)C[C@@H]54)cn3c2)nn2cc(C(F)F)nc12 [Compound 228, 2-(difluoromethyl)-6-(8-fluoro-2-((1R,5S,6r)-3-methyl-3-azabicyclo[3.1.0]hexan-6-yl)imidazo[1,2-a]pyridin-6-yl)-8-methylimidazo[1,2-b]pyridazine] | 100 to 1000 nM |
| Cc1cn2nc(-c3cc(F)c4nc(C5CCC6(CCN(C)CC6)C5)cn4c3)cc(C)c2n1 (centres unmarked) [Compound 229, 2-(6-(2,8-dimethylimidazo[1,2-b]pyridazin-6-yl)-8-fluoroimidazo[1,2-a]pyridin-2-yl)-8-methyl-8-azaspiro[4.5]decane] | < 100 nM |
| Cc1cn2nc(-c3cc(F)c4nc([C@H]5[C@@H]6CN(C)C[C@@H]65)cn4c3)cc(C(F)(F)F)c2n1 [Compound 230, 6-(8-fluoro-2-((1R,5S,6r)-3-methyl-3-azabicyclo[3.1.0]hexan-6-yl)imidazo[1,2-a]pyridin-6-yl)-2-methyl-8-(trifluoromethyl)imidazo [1,2-b]pyridazine] | < 100 nM |
| Cc1cn2nc(-c3cc(F)c4nc([C@@H]5C6CCN(C)CC65)cn4c3)cc(C)c2n1 (stereo partly drawn) [Compound 231, 6-(8-fluoro-2-((7R)-3-methyl-3-azabicyclo[4.1.0]heptan-7-yl)imidazo[1,2-a]pyridin-6-yl)-2,8-dimethylimidazo[1,2-b]pyridazine] | < 100 nM |

| SMILES | IC50 |
| --- | --- |
| Cc1cn2nc(-c3cc(F)c4nc(C5CCC6(CCN(C)C6)C5)cn4c3)cc(C)c2n1 (centres unmarked) [Compound 232, 6-(8-fluoro-2-(2-methyl-2-azaspiro[4.4]nonan-7-yl)imidazo[1,2-a]pyridin-6-yl)-2,8-dimethylimidazo[1,2-b]pyridazine] | < 100 nM |
| Cc1cn2nc(-c3cc(F)c4nc([C@H]5[C@@H]6CN(C)C[C@@H]65)cn4c3)cc(C(F)F)c2n1 [Compound 233, 8-(difluoromethyl)-6-(8-fluoro-2-((1R,5S,6r)-3-methyl-3-azabicyclo[3.1.0]hexan-6-yl)imidazo[1,2-a]pyridin-6-yl)-2-methylimidazo[1,2-b]pyridazine] | < 100 nM |
| Cc1cn2cc(-c3cc(F)c4nc(CC5CCNCC5)cn4c3)cc(F)c2n1 [Compound 236, 8,8′-difluoro-2-methyl-2′-(piperidin-4-ylmethyl)-6,6′-biimidazo[1,2-a]pyridine] | 100 to 1000 nM |
| Cc1cn2nc(-c3cc(F)c4nc(CC5CCN(C)CC5)cn4c3)cc(C)c2n1 [Compound 237, 6-(8-fluoro-2-((1-methylpiperidin-4-yl)methyl)imidazo[1,2-a]pyridin-6-yl)-2,8-dimethylimidazo[1,2-b]pyridazine] | < 100 nM |
| Cc1cn2nc(-c3cc(F)c4nc(CC5CCNCC5)cn4c3)cc(C)c2n1 [Compound 238, 6-(8-fluoro-2-(piperidin-4-ylmethyl)imidazo[1,2-a]pyridin-6-yl)-2,8-dimethylimidazo[1,2-b]pyridazine] | < 100 nM |
| Cc1cn2nc(-c3cc(F)c4nc(NC(=O)[C@H]5[C@@H]6CNC[C@@H]65)cn4c3)cc(C)c2n1 [Compound 246, (1R,5S,6r)-N-(6-(2,8-dimethylimidazo[1,2-b]pyridazin-6-yl)-8-fluoroimidazo[1,2-a]pyridin-2-yl)-3-azabicyclo[3.1.0]hexane-6-carboxamide] | < 100 nM |
| Cc1cn2nc(-c3cc(F)c4nc(NC(=O)C5CCCNC5)cn4c3)cc(C)c2n1 (centres unmarked) [Compound 248, N-(6-(2,8-dimethylimidazo[1,2-b]pyridazin-6-yl)-8-fluoroimidazo[1,2-a]pyridin-2-yl)piperidine-3-carboxamide] | < 100 nM |
| CNC1CC(C(=O)Nc2cn3cc(-c4cc(C)c5nc(C)cn5n4)cc(F)c3n2)C1 (centres unmarked) [Compound 249, N-(6-(2,8-dimethylimidazo[1,2-b]pyridazin-6-yl)-8-fluoroimidazo[1,2-a]pyridin-2-yl)-3-(methylamino)cyclobutane-1-carboxamide] | < 100 nM |
| Cc1cn2nc(-c3cc(F)c4nc(NC(=O)C5CCNCC5)cn4c3)cc(C)c2n1 [Compound 250, N-(6-(2,8-dimethylimidazo[1,2-b]pyridazin-6-yl)-8-fluoroimidazo[1,2-a]pyridin-2-yl)piperidine-4-carboxamide] | 100 to 1000 nM |
| Cc1cn2nc(-c3cc(F)c4nc(NC(=O)C5CC(CN(C)C)C5)cn4c3)cc(C)c2n1 (centres unmarked) [Compound 251, 3-((dimethylamino)methyl)-N-(6-(2,8-dimethylimidazo[1,2-b]pyridazin-6-yl)-8-fluoroimidazo[1,2-a]pyridin-2-yl)cyclobutane-1-carboxamide] | 100 to 1000 nM |
| Cc1cn2nc(-c3cc(F)c4nc(NC(=O)C5CC6(CCNC6)C5)cn4c3)cc(C)c2n1 (centres unmarked) [Compound 252, N-(6-(2,8-dimethylimidazo[1,2-b]pyridazin-6-yl)-8-fluoroimidazo[1,2-a]pyridin-2-yl)-6-azaspiro[3.4]octane-2-carboxamide] | 100 to 1000 nM |
| Cc1cn2nc(-c3cc(F)c4nc(NC(=O)C5CN(C6COC6)C5)cn4c3)cc(C)c2n1 [Compound 254, N-(6-(2,8-dimethylimidazo[1,2-b]pyridazin-6-yl)-8-fluoroimidazo[1,2-a]pyridin-2-yl)-1-(oxetan-3-yl)azetidine-3-carboxamide] | < 100 nM |
| Cc1cn2nc(-c3cc(F)c4nc(NC(=O)C5COC5)cn4c3)cc(C)c2n1 [Compound 256, N-(6-(2,8-dimethylimidazo[1,2-b]pyridazin-6-yl)-8-fluoroimidazo[1,2-a]pyridin-2-yl)oxetane-3-carboxamide] | 100 to 1000 nM |
| Cc1cn2nc(-c3cc(F)c4nc(NC(=O)C5CN(C)C5)cn4c3)cc(C)c2n1 [Compound 257, N-(6-(2,8-dimethylimidazo[1,2-b]pyridazin-6-yl)-8-fluoroimidazo[1,2-a]pyridin-2-yl)-1-methylazetidine-3-carboxamide] | < 100 nM |
| Cc1cn2nc(-c3cc(F)c4nc(NC(=O)C5(C)CNC5)cn4c3)cc(C)c2n1 [Compound 258, N-(6-(2,8-dimethylimidazo[1,2-b]pyridazin-6-yl)-8-fluoroimidazo[1,2-a]pyridin-2-yl)-3-methylazetidine-3-carboxamide] | < 100 nM |
| Cc1cn2nc(-c3cc(F)c4nc(NC(=O)C5(C)CN(C)C5)cn4c3)cc(C)c2n1 [Compound 261, N-(6-(2,8-dimethylimidazo[1,2-b]pyridazin-6-yl)-8-fluoroimidazo[1,2-a]pyridin-2-yl)-1,3-dimethylazetidine-3-carboxamide] | < 100 nM |

Source: patent publication US20250353841A1 (BIOGEN MA INC., priority 2022, published 2025)
